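Grown in 96-well plates, cells were treated for 48 hours with each compound at five concentrations. Insufficient inhibition: endpoint recorded as highest concentration tested. The concentration for 50% growth inhibition is given as GI50.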 Activity calls are given as the source filed them. No stated cut-off is given here; in the data, active = GI50 up to about 1.1 µM and inactive = higher.
Experiments:
Test in all cases: inhibition of tumour cell growth, NCI panel, 48 h
HOP-62 = system: HOP-62
NCI-H226 = system: NCI-H226
Hs-578T = system: Hs-578T
HCT-116 = system: HCT-116
Malme-3M = system: Malme-3M
HL-60 = system: HL-60
786-0 = system: 786-0
BT-549 = system: BT-549
M14 = system: M14
OVCAR-5 = system: OVCAR-5
SK-MEL-2 = system: SK-MEL-2
SF-295 = system: SF-295
SNB-75 = system: SNB-75
PC-3 = system: PC-3
MCF7 = system: MCF7
U-251 = system: U-251
OVCAR-8 = system: OVCAR-8
SW-620 = system: SW-620
HCC 2998 = system: HCC 2998
NCI-H460 = system: NCI-H460

Structure (SMILES) | GI50 (HOP-62) | GI50 (NCI-H226) | GI50 (Hs-578T) | GI50 (HCT-116) | GI50 (Malme-3M) | GI50 (HL-60) | GI50 (786-0) | GI50 (BT-549) | GI50 (M14) | GI50 (OVCAR-5) | GI50 (SK-MEL-2) | GI50 (SF-295) | GI50 (SNB-75) | GI50 (PC-3) | GI50 (MCF7) | GI50 (U-251) | GI50 (OVCAR-8) | GI50 (SW-620) | GI50 (HCC 2998) | GI50 (NCI-H460)
O=C(c1ccccc1)c1ccc2[nH]c(-c3c(Cl)c(Cl)c(Cl)c(Cl)c3C(=O)N/N=C\C=C\c3ccccc3)nc2c1 | 54.1 µM (inactive) | 42.8 µM (inactive) | 52.7 µM (inactive) | 58.6 µM (inactive) | 57.3 µM (inactive) | 37.8 µM (inactive) | 35.8 µM (inactive) | 47.1 µM (inactive) | 53.5 µM (inactive) | > 100 µM (inactive) | 37.1 µM (inactive) | 38.9 µM (inactive) | 59.4 µM (inactive) | 42.3 µM (inactive) | 20.7 µM (inactive) | 68.9 µM (inactive) | 60 µM (inactive) | 54.1 µM (inactive) |  | 
Cc1cn(CC2=NCC(C)N2)c(=O)[nH]c1=O (stereo not given) | > 100 µM (inactive) | > 100 µM (inactive) | > 100 µM (inactive) | > 100 µM (inactive) | > 100 µM (inactive) |  | > 100 µM (inactive) | > 100 µM (inactive) | > 100 µM (inactive) | > 100 µM (inactive) | > 100 µM (inactive) | > 100 µM (inactive) | > 100 µM (inactive) | > 100 µM (inactive) | > 100 µM (inactive) | > 100 µM (inactive) | > 100 µM (inactive) | > 100 µM (inactive) | > 100 µM (inactive) | > 100 µM (inactive)
O=C1C=CC(=O)c2c(NCC3CC3)ccc(NCC3CC3)c21 | > 100 µM (inactive) |  | 82.8 µM (inactive) | 37.8 µM (inactive) | 19.8 µM (inactive) | 11 µM (inactive) | 56.4 µM (inactive) | 25.9 µM (inactive) | 18.5 µM (inactive) | 59 µM (inactive) | 50.4 µM (inactive) | 33.7 µM (inactive) |  | 46.2 µM (inactive) | 24.7 µM (inactive) | 55.7 µM (inactive) | 56.2 µM (inactive) | 34.5 µM (inactive) | 57.5 µM (inactive) | 60.8 µM (inactive)
Cn1c(=O)c2c(nc3[nH]c(=O)c(Br)cn32)n(C)c1=O | > 100 µM (inactive) | > 100 µM (inactive) | > 100 µM (inactive) | > 100 µM (inactive) |  | > 100 µM (inactive) | > 100 µM (inactive) | > 100 µM (inactive) | > 100 µM (inactive) | > 100 µM (inactive) | > 100 µM (inactive) | > 100 µM (inactive) | > 100 µM (inactive) | > 100 µM (inactive) |  | > 100 µM (inactive) | > 100 µM (inactive) | > 100 µM (inactive) | > 100 µM (inactive) | > 100 µM (inactive)
Cc1ccc(C(=O)/C=C2\Nc3ccccc3S\C2=N\CS(=O)(=O)c2ccc(C)cc2)cc1 | 7.8 µM (inactive) |  | 8.43 µM (inactive) | > 10 µM (inactive) | > 10 µM (inactive) | 7.41 µM (inactive) | > 10 µM (inactive) | > 10 µM (inactive) | > 10 µM (inactive) | > 10 µM (inactive) |  | > 10 µM (inactive) | > 10 µM (inactive) | > 10 µM (inactive) | 4.3 µM (inactive) | > 10 µM (inactive) | > 10 µM (inactive) | > 10 µM (inactive) | > 10 µM (inactive) | 
Cc1ccc(/N=N/c2c(O)ccc3ccccc23)cc1 | 82 µM (inactive) | > 100 µM (inactive) | > 100 µM (inactive) | > 100 µM (inactive) | > 100 µM (inactive) |  | > 100 µM (inactive) | > 100 µM (inactive) | > 100 µM (inactive) | > 100 µM (inactive) | > 100 µM (inactive) | > 100 µM (inactive) | > 100 µM (inactive) | 83 µM (inactive) |  | 53.6 µM (inactive) | > 100 µM (inactive) | 63.4 µM (inactive) |  | 
COc1cc(C[S+]([O-])c2ccc(O)cc2)cc(OC)c1OC (stereo not given) | > 100 µM (inactive) | > 100 µM (inactive) | > 100 µM (inactive) | > 100 µM (inactive) | > 100 µM (inactive) | > 100 µM (inactive) | > 100 µM (inactive) | > 100 µM (inactive) | > 100 µM (inactive) | > 100 µM (inactive) | > 100 µM (inactive) | > 100 µM (inactive) | > 100 µM (inactive) | > 100 µM (inactive) | > 100 µM (inactive) | > 100 µM (inactive) | > 100 µM (inactive) | > 100 µM (inactive) |  | > 100 µM (inactive)
O=[N+]([O-])c1cc(-c2ccc([As](=O)(O)O)cc2)ccc1[As](=O)(O)O | > 100 µM (inactive) | > 100 µM (inactive) | > 100 µM (inactive) | > 100 µM (inactive) | > 100 µM (inactive) | > 100 µM (inactive) | > 100 µM (inactive) | > 100 µM (inactive) | > 100 µM (inactive) | > 100 µM (inactive) | > 100 µM (inactive) | > 100 µM (inactive) |  | > 100 µM (inactive) |  | > 100 µM (inactive) | > 100 µM (inactive) | > 100 µM (inactive) |  | > 100 µM (inactive)
CC(=O)N1C(=O)/C(=C\C(=O)c2ccc([N+](=O)[O-])cc2)c2ccccc21 | 36.4 µM (inactive) | > 100 µM (inactive) | 22.2 µM (inactive) | 18 µM (inactive) | 20.7 µM (inactive) |  | 15.5 µM (inactive) | 20.9 µM (inactive) | 31 µM (inactive) | 54.2 µM (inactive) | > 100 µM (inactive) | > 100 µM (inactive) | 21.9 µM (inactive) | 21.8 µM (inactive) | 21.3 µM (inactive) | 21.1 µM (inactive) | 47.5 µM (inactive) |  | 19.3 µM (inactive) | 20.1 µM (inactive)
CC1=C/C(=N/N2C(=O)/C(=C/c3ccc(Cl)cc3)N=C2c2ccccc2)CC(C)(C)C1 | 54.2 µM (inactive) | 90.2 µM (inactive) | 52 µM (inactive) | 91.8 µM (inactive) | > 100 µM (inactive) |  | 57 µM (inactive) | > 100 µM (inactive) | > 100 µM (inactive) | > 100 µM (inactive) | 24.9 µM (inactive) | 51.9 µM (inactive) | 31.5 µM (inactive) | 61.2 µM (inactive) | 49.8 µM (inactive) | 21.5 µM (inactive) | 32.7 µM (inactive) | 76.2 µM (inactive) | > 100 µM (inactive) | > 100 µM (inactive)
O=C(O)CC(NC(=O)Nc1ccc([N+](=O)[O-])cc1)C(=O)Nc1ccc([N+](=O)[O-])cc1 (stereo not given) | > 100 µM (inactive) | > 100 µM (inactive) | 50.2 µM (inactive) | > 100 µM (inactive) | > 100 µM (inactive) |  | > 100 µM (inactive) | > 100 µM (inactive) | > 100 µM (inactive) | > 100 µM (inactive) | > 100 µM (inactive) | > 100 µM (inactive) | > 100 µM (inactive) | > 100 µM (inactive) | > 100 µM (inactive) | > 100 µM (inactive) | > 100 µM (inactive) | > 100 µM (inactive) | > 100 µM (inactive) | > 100 µM (inactive)
NC(CNO)C(=O)O (stereo not given) | > 100 µM (inactive) | > 100 µM (inactive) | > 100 µM (inactive) | > 100 µM (inactive) | > 100 µM (inactive) | 6.79 µM (inactive) | > 100 µM (inactive) | > 100 µM (inactive) | > 100 µM (inactive) | > 100 µM (inactive) | > 100 µM (inactive) | > 100 µM (inactive) | > 100 µM (inactive) | > 100 µM (inactive) | > 100 µM (inactive) | > 100 µM (inactive) | > 100 µM (inactive) | > 100 µM (inactive) |  | > 100 µM (inactive)
O=[N+]([O-])c1ccc2sc(/C=N/c3cnccn3)cc2c1 | 29.1 µM (inactive) |  | 16.7 µM (inactive) | 37 µM (inactive) | 37 µM (inactive) | 14.2 µM (inactive) | 33.5 µM (inactive) | 85.7 µM (inactive) | 37.2 µM (inactive) | 36.4 µM (inactive) | 23.2 µM (inactive) | 35.4 µM (inactive) | 0.861 µM (active) | 31 µM (inactive) | 5.74 µM (inactive) | 20.9 µM (inactive) | 45.4 µM (inactive) | 25 µM (inactive) | 18.7 µM (inactive) | 31 µM (inactive)
CC(=O)NC(C)(C)C1CCC(C)=C(c2ccccc2)C1 (stereo not given) | > 100 µM (inactive) |  |  | 87.5 µM (inactive) |  | 31.1 µM (inactive) | > 100 µM (inactive) | > 100 µM (inactive) | > 100 µM (inactive) | > 100 µM (inactive) |  | > 100 µM (inactive) | 53.6 µM (inactive) | > 100 µM (inactive) | > 100 µM (inactive) | 80 µM (inactive) | > 100 µM (inactive) | > 100 µM (inactive) | > 100 µM (inactive) | > 100 µM (inactive)
CC(C)C1CC(CO)(CNc2cc(Cl)nc(N)n2)C1 (stereo not given) | > 100 µM (inactive) | 13.5 µM (inactive) | 25.6 µM (inactive) | 41.3 µM (inactive) | 39.2 µM (inactive) | 18.1 µM (inactive) | > 100 µM (inactive) | 65.8 µM (inactive) |  | 81.8 µM (inactive) | 45.9 µM (inactive) | 6.22 µM (inactive) |  | 71 µM (inactive) | 15 µM (inactive) | 44 µM (inactive) | 88.9 µM (inactive) | > 100 µM (inactive) | 34.8 µM (inactive) | 30.9 µM (inactive)
